Laboratory results as given in patent publication US5843889A, “Glycopeptide antibiotic derivatives” (Eli Lilly and Company, priority 1997, dated 1998).
≈ marks a conversion by molar mass, not a printed value.

Columns and labels:
Assay in all cases: MIC, standard broth micro-dilution assay
Format in all cases: cell-based
[1] = system: Entercoccus faecalis 2041
Description: (§1) The formula I compounds have in vitro and in vivo activity against Gram-positive pathogenic bacteria. The MIC's were determined using a standard broth micro-dilution assay.

[2] = system: Entercoccus gallinarum 245
Description: as §1

[3] = system: Entercoccus faecalis 276
Description: as §1

| Structure (SMILES) | MIC [1] | MIC [2] | MIC [3] |
| --- | --- | --- | --- |
| CCCc1ccc(-c2ccc(CNC3(C)CC(OC4C(Oc5c6cc7cc5Oc5ccc(cc5Cl)C(OC5CC(C)(N)C(O)C(C)O5)C5NC(=O)C(NC(=O)C7NC(=O)C(CC(N)=O)NC(=O)C(NC(=O)C(CC(C)C)NC)C(O)c7ccc(c(Cl)c7)O6)c6ccc(O)c(c6)-c6c(O)cc(O)cc6C(C(=O)O)NC5=O)OC(CO)C(O)C4O)OC(C)C3O)cc2)cc1 (stereo not drawn) [Compound 107, 4-[4-propylphenyl]benzyl] | 0.5 µg/mL (≈ 0.278 µM) | 2 µg/mL (≈ 1.11 µM) | 1 µg/mL (≈ 0.555 µM) |
| CNC(CC(C)C)C(=O)NC1C(=O)NC(CC(N)=O)C(=O)NC2C(=O)NC3C(=O)NC(C(=O)NC(C(=O)O)c4cc(O)cc(O)c4-c4cc3ccc4O)C(OC3CC(C)(N)C(O)C(C)O3)c3ccc(c(Cl)c3)Oc3cc2cc(c3OC2OC(CO)C(O)C(O)C2OC2CC(C)(NCc3ccc(OC(=O)c4ccccc4)cc3)C(O)C(C)O2)Oc2ccc(cc2Cl)C1O (stereo not drawn) [Compound 150, 4-benzoyloxybenzyl] | ≤ 0.06 µg/mL | 2 µg/mL (≈ 1.11 µM) | 1 µg/mL (≈ 0.555 µM) |
| CN[C@H](CC(C)C)C(=O)N[C@H]1C(=O)N[C@@H](CC(N)=O)C(=O)N[C@H]2C(=O)N[C@H]3C(=O)N[C@H](C(=O)N[C@H](C(=O)O)c4cc(O)cc(O)c4-c4cc3ccc4O)[C@H](O[C@H]3C[C@](C)(N)[C@@H](O)[C@H](C)O3)c3ccc(c(Cl)c3)Oc3cc2cc(c3O[C@@H]2O[C@H](CO)[C@@H](O)[C@H](O)[C@H]2O[C@H]2C[C@](C)(NCc3ccc(-c4ccc(C)cc4)cc3)[C@@H](O)[C@H](C)O2)Oc2ccc(cc2Cl)[C@H]1O [Compound 97, 4-[4-methylphenyl]benzyl] | ≤ 0.06 µg/mL | 2 µg/mL (≈ 1.13 µM) | ≤ 0.06 µg/mL |
| CNC(CC(C)C)C(=O)NC1C(=O)NC(CC(N)=O)C(=O)NC2C(=O)NC3C(=O)NC(C(=O)NC(C(=O)O)c4cc(O)cc(O)c4-c4cc3ccc4O)C(OC3CC(C)(N)C(O)C(C)O3)c3ccc(c(Cl)c3)Oc3cc2cc(c3OC2OC(CO)C(O)C(O)C2OC2CC(C)(NCc3ccc(-c4ccc([N+](=O)[O-])cc4)cc3)C(O)C(C)O2)Oc2ccc(cc2Cl)C1O (stereo not drawn) [Compound 64, 4-[4-nitrophenyl]benzyl] | ≤ 0.06 µg/mL | 2 µg/mL (≈ 1.11 µM) | 0.5 µg/mL (≈ 0.277 µM) |
| CCCOC(c1ccccc1)c1ccc(CNC2(C)CC(OC3C(Oc4c5cc6cc4Oc4ccc(cc4Cl)C(OC4CC(C)(N)C(O)C(C)O4)C4NC(=O)C(NC(=O)C6NC(=O)C(CC(N)=O)NC(=O)C(NC(=O)C(CC(C)C)NC)C(O)c6ccc(c(Cl)c6)O5)c5ccc(O)c(c5)-c5c(O)cc(O)cc5C(C(=O)O)NC4=O)OC(CO)C(O)C3O)OC(C)C2O)cc1 (stereo not drawn) [Compound 128, 4-[alpha-propoxybenzyl]benzyl] | 0.5 µg/mL (≈ 0.273 µM) | 2 µg/mL (≈ 1.09 µM) | 1 µg/mL (≈ 0.546 µM) |
| CNC(CC(C)C)C(=O)NC1C(=O)NC(CC(N)=O)C(=O)NC2C(=O)NC3C(=O)NC(C(=O)NC(C(=O)O)c4cc(O)cc(O)c4-c4cc3ccc4O)C(OC3CC(C)(N)C(O)C(C)O3)c3ccc(c(Cl)c3)Oc3cc2cc(c3OC2OC(CO)C(O)C(O)C2OC2CC(C)(NCc3c4ccccc4c(C)c4ccccc34)C(O)C(C)O2)Oc2ccc(cc2Cl)C1O (stereo not drawn) [Compound 17, 9-[10-methyl]anthranylmethyl] | 0.25 µg/mL (≈ 0.139 µM) | 0.5 µg/mL (≈ 0.278 µM) | 0.5 µg/mL (≈ 0.278 µM) |
| CNC(CC(C)C)C(=O)NC1C(=O)NC(CC(N)=O)C(=O)NC2C(=O)NC3C(=O)NC(C(=O)NC(C(=O)O)c4cc(O)cc(O)c4-c4cc3ccc4O)C(OC3CC(C)(N)C(O)C(C)O3)c3ccc(c(Cl)c3)Oc3cc2cc(c3OC2OC(CO)C(O)C(O)C2OC2CC(C)(NCc3ccc(O)cc3)C(O)C(C)O2)Oc2ccc(cc2Cl)C1O (stereo not drawn) [Compound 136, 4-hydroxybenzyl] | ≤ 0.06 µg/mL | 4 µg/mL (≈ 2.35 µM) | ≤ 0.06 µg/mL |
| CNC(CC(C)C)C(=O)NC1C(=O)NC(CC(N)=O)C(=O)NC2C(=O)NC3C(=O)NC(C(=O)NC(C(=O)O)c4cc(O)cc(O)c4-c4cc3ccc4O)C(OC3CC(C)(N)C(O)C(C)O3)c3ccc(c(Cl)c3)Oc3cc2cc(c3OC2OC(CO)C(O)C(O)C2OC2CC(C)(NCc3ccc(Oc4ccccc4Cl)c([N+](=O)[O-])c3)C(O)C(C)O2)Oc2ccc(cc2Cl)C1O (stereo not drawn) [Compound 88, 4-[2-chlorophenoxy]-3-nitrobenzyl] | ≤ 0.06 µg/mL | ≤ 0.06 µg/mL | ≤ 0.06 µg/mL |
| CNC(CC(C)C)C(=O)NC1C(=O)NC(CC(N)=O)C(=O)NC2C(=O)NC3C(=O)NC(C(=O)NC(C(=O)O)c4cc(O)cc(O)c4-c4cc3ccc4O)C(OC3CC(C)(N)C(O)C(C)O3)c3ccc(c(Cl)c3)Oc3cc2cc(c3OC2OC(CO)C(O)C(O)C2OC2CC(C)(NCc3ccc(-c4ccccn4)cc3)C(O)C(C)O2)Oc2ccc(cc2Cl)C1O (stereo not drawn) [Compound 137, 4-[2-pyridyl]benzyl] | ≤ 0.06 µg/mL | 8 µg/mL (≈ 4.55 µM) | ≤ 0.06 µg/mL |
| CNC(CC(C)C)C(=O)NC1C(=O)NC(CC(N)=O)C(=O)NC2C(=O)NC3C(=O)NC(C(=O)NC(C(=O)O)c4cc(O)cc(O)c4-c4cc3ccc4O)C(OC3CC(C)(N)C(O)C(C)O3)c3ccc(c(Cl)c3)Oc3cc2cc(c3OC2OC(CO)C(O)C(O)C2OC2CC(C)(NCc3ccc(Cc4ccccc4)c(OC)c3)C(O)C(C)O2)Oc2ccc(cc2Cl)C1O (stereo not drawn) [Compound 104, 4-benzyl-3-methoxybenzyl] | ≤ 0.06 µg/mL | 2 µg/mL (≈ 1.11 µM) | ≤ 0.06 µg/mL |

Next, values leading:

| MIC [1] | MIC [2] | MIC [3] | Structure (SMILES) |
| --- | --- | --- | --- |
| ≤ 0.06 µg/mL | 1 µg/mL (≈ 0.56 µM) | ≤ 0.06 µg/mL | CNC(CC(C)C)C(=O)NC1C(=O)NC(CC(N)=O)C(=O)NC2C(=O)NC3C(=O)NC(C(=O)NC(C(=O)O)c4cc(O)cc(O)c4-c4cc3ccc4O)C(OC3CC(C)(N)C(O)C(C)O3)c3ccc(c(Cl)c3)Oc3cc2cc(c3OC2OC(CO)C(O)C(O)C2OC2CC(C)(NCc3ccc(-c4ccc(C)cc4)cc3C)C(O)C(C)O2)Oc2ccc(cc2Cl)C1O (stereo not drawn) [Compound 222, 4-[4-methylphenyl]-2-methylbenzyl] |
| 0.5 µg/mL (≈ 0.28 µM) | 2 µg/mL (≈ 1.12 µM) | 2 µg/mL (≈ 1.12 µM) | CNC(CC(C)C)C(=O)NC1C(=O)NC(CC(N)=O)C(=O)NC2C(=O)NC3C(=O)NC(C(=O)NC(C(=O)O)c4cc(O)cc(O)c4-c4cc3ccc4O)C(OC3CC(C)(N)C(O)C(C)O3)c3ccc(c(Cl)c3)Oc3cc2cc(c3OC2OC(CO)C(O)C(O)C2OC2CC(C)(NCc3c4c(cc5ccccc35)CCCC4)C(O)C(C)O2)Oc2ccc(cc2Cl)C1O (stereo not drawn) [Compound 156, 1,2,3,4,-tetrahydro-9-anthranylmethyl] |
| 0.25 µg/mL (≈ 0.144 µM) | 1 µg/mL (≈ 0.578 µM) | 0.5 µg/mL (≈ 0.289 µM) | CNC(CC(C)C)C(=O)NC1C(=O)NC(CC(N)=O)C(=O)NC2C(=O)NC3C(=O)NC(C(=O)NC(C(=O)O)c4cc(O)cc(O)c4-c4cc3ccc4O)C(OC3CC(C)(N)C(O)C(C)O3)c3ccc(c(Cl)c3)Oc3cc2cc(c3OC2OC(CO)C(O)C(O)C2OC2CC(C)(NCCCCC3CCCCC3)C(O)C(C)O2)Oc2ccc(cc2Cl)C1O (stereo not drawn) [Compound 205, 4-cyclohexylbutyl] |
| ≤ 0.06 µg/mL | ≤ 0.06 µg/mL | ≤ 0.06 µg/mL | CNC(CC(C)C)C(=O)NC1C(=O)NC(CC(N)=O)C(=O)NC2C(=O)NC3C(=O)NC(C(=O)NC(C(=O)O)c4cc(O)cc(O)c4-c4cc3ccc4O)C(OC3CC(C)(N)C(O)C(C)O3)c3ccc(c(Cl)c3)Oc3cc2cc(c3OC2OC(CO)C(O)C(O)C2OC2CC(C)(NCC3CCC(Cc4ccccc4)CC3)C(O)C(C)O2)Oc2ccc(cc2Cl)C1O (stereo not drawn) [Compound 241, 4-[benzyl]cyclohexylmethyl] |
| 0.5 µg/mL (≈ 0.328 µM) | 0.5 µg/mL (≈ 0.328 µM) | 0.5 µg/mL (≈ 0.328 µM) | CN[C@@H](CC(C)C)C(=O)N[C@H]1C(=O)N[C@H](CC(N)=O)C(=O)N[C@H]2C(=O)N[C@H]3C(=O)N[C@@H](C(=O)NC(C(=O)O)c4cc(O)cc(O)c4-c4cc3ccc4O)[C@@H](O[C@H]3C[C@](C)(N)[C@H](O)[C@@H](C)O3)c3ccc(cc3)Oc3cc2cc(c3O[C@H]2O[C@@H](CO)[C@@H](O)[C@H](O)[C@@H]2O[C@H]2C[C@](C)(N)[C@H](O)[C@@H](C)O2)Oc2ccc(cc2)[C@@H]1O (stereo partly drawn) [Compound A82846C, A82846C, reference compound] |
| ≤ 0.06 µg/mL | 4 µg/mL (≈ 2.27 µM) | ≤ 0.06 µg/mL | CNC(CC(C)C)C(=O)NC1C(=O)NC(CC(N)=O)C(=O)NC2C(=O)NC3C(=O)NC(C(=O)NC(C(=O)O)c4cc(O)cc(O)c4-c4cc3ccc4O)C(OC3CC(C)(N)C(O)C(C)O3)c3ccc(c(Cl)c3)Oc3cc2cc(c3OC2OC(CO)C(O)C(O)C2OC2CC(C)(NCc3cncc(-c4ccccc4)c3)C(O)C(C)O2)Oc2ccc(cc2Cl)C1O (stereo not drawn) [Compound 151, 5-phenyl-3-pyridinylmethyl] |
| ≤ 0.06 µg/mL | 2 µg/mL (≈ 1.12 µM) | 0.5 µg/mL (≈ 0.28 µM) | CNC(CC(C)C)C(=O)NC1C(=O)NC(CC(N)=O)C(=O)NC2C(=O)NC3C(=O)NC(C(=O)NC(C(=O)O)c4cc(O)cc(O)c4-c4cc3ccc4O)C(OC3CC(C)(N)C(O)C(C)O3)c3ccc(c(Cl)c3)Oc3cc2cc(c3OC2OC(CO)C(O)C(O)C2OC2CC(C)(NCc3ccc(N(C)c4ccccc4)cc3)C(O)C(C)O2)Oc2ccc(cc2Cl)C1O (stereo not drawn) [Compound 178, 4-[N-methylanilino]benzyl] |
| 1 µg/mL (≈ 0.58 µM) | 1 µg/mL (≈ 0.58 µM) | 1 µg/mL (≈ 0.58 µM) | CNC(CC(C)C)C(=O)NC1C(=O)NC(CC(N)=O)C(=O)NC2C(=O)NC3C(=O)NC(C(=O)NC(C(=O)O)c4cc(O)cc(O)c4-c4cc3ccc4O)C(OC3CC(C)(N)C(O)C(C)O3)c3ccc(cc3)Oc3cc2cc(c3OC2OC(CO)C(O)C(O)C2OC2CC(C)(NCc3ccc(-c4ccccc4)cc3)C(O)C(C)O2)Oc2ccc(cc2Cl)C1O (stereo not drawn) [Compound 182, 4-phenylbenzyl] |
| ≤ 0.06 µg/mL | 1 µg/mL (≈ 0.573 µM) | ≤ 0.06 µg/mL | CNC(CC(C)C)C(=O)NC1C(=O)NC(CC(N)=O)C(=O)NC2C(=O)NC3C(=O)NC(C(=O)NC(C(=O)O)c4cc(O)cc(O)c4-c4cc3ccc4O)C(OC3CC(C)(N)C(O)C(C)O3)c3ccc(c(Cl)c3)Oc3cc2cc(c3OC2OC(CO)C(O)C(O)C2OC2CC(C)(NCCc3ccc4ccccc4c3)C(O)C(C)O2)Oc2ccc(cc2Cl)C1O (stereo not drawn) [Compound 179, 2-[2-napthyl]ethyl] |
